From patent publication US11566231B2, “Physiology and pathophysiology of human gut: intestine-on-chip” (EMULATE, INC., priority 2017, dated 2023)

Assays:
IL-8 = test: LPS-induced IL-8 production in Intestine-Chip; assay type: cell-based, human; details: LPS 100 μg/ml; Rifaximin 50 μg/ml; without stretch
human PXR = details: human cells; cited from earlier work

CO[C@H]1/C=C/O[C@@]2(C)Oc3c(C)c(O)c4c(O)c(c5c(nc6cc(C)ccn65)c4c3C2=O)NC(=O)/C(C)=C\C=C\[C@H](C)[C@H](O)[C@@H](C)[C@@H](O)[C@@H](C)[C@H](OC(C)=O)[C@@H]1C [Rifaximin]
IL-8 (IL-8): decrease in IL-8
expression of PXR-regulated genes, including CYP3A4 and MDR1 (human PXR): enhanced
